According to patent US7517875B2, “Piperidine derivatives having CCR3 antagonism” (Teijin Limited, priority 2002, dated 2009):

target: T1, CCR3 receptor (Homo sapiens, UniProt P51677); experiment: Inhibition of eotaxin-induced intracellular calcium concentration increase in CCR3-expressing cells; type: cell-based; conditions: 2 μM concentration of compound; CCR3-expressing K562 cells; human eotaxin 0.5 μg/ml; read-out: inhibition of eotaxin-induced intracellular calcium concentration increase (Suppression)
T1 construct: expressed in transfected cells; host or cells: K562 cells
T1 sequence (P51677 1-355): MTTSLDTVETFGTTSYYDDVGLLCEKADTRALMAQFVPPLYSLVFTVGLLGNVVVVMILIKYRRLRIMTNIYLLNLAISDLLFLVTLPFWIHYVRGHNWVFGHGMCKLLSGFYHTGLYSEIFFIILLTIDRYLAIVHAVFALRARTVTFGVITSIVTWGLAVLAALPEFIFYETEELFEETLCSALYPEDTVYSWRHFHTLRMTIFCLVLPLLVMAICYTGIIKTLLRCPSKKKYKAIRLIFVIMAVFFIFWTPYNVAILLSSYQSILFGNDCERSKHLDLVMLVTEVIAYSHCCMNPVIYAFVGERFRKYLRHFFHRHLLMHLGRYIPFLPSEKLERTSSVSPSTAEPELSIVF
Description: Measurement of Inhibiting Power of Test Compounds Against Eotaxin-Induced Intracellular Calcium Concentration Increase in CCR3-Expressing Cells
K562 cells stably expressing CCR3 receptor were used in the following method for measurement of the inhibiting power of compounds of the invention against intracellular calcium concentration increase.
The CCR3-expressing K562 cells were suspended in HBSS solution (Hanks' Balanced Salt Solution, Gibco BRL) containing 10 mM HEPES (N-[2-hydroxyethyl]piperazine-N′-[2-ethanesulfonic acid], Gibco BRL), and then 1 mM Fura-2 acetoxymethyl ester (product of Dojin Kagaku) was added to a final concentration of 1 μM and the mixture was incubated at 37° C. for 30 minutes. After rinsing the cells, they were added simultaneously with the test compound into a 96-well white plate (Falcon), the agonist was added after 5 minutes, the mixture was excited at 340 nm and 380 nm, and the 340/380 ratio was monitored to measure the intracellular calcium concentration. Human eotaxin (product of Genzyme Techne) (0.5 μg/ml) was used as an agonist. The inhibiting power of the test compound was determined by measuring the intracellular calcium concentration upon treatment of the CCR3-expressing K562 cells with the test compound 5 minutes before eotaxin stimulation, and calculating the suppression by the following formula. Suppression (%)={1−(A−B)/(C−B)}×100 (A: Intracellular calcium concentration upon stimulation with eotaxin after treatment with test compound, B: Intracellular calcium concentration without stimulation, C: Intracellular calcium concentration upon stimulation with eotaxin without treatment with test compound)

`CC(=O)NCCC(=O)Nc1cccc2[nH]c(NCC3CCN(Cc4cccc5ccccc45)CC3)nc12` [1-3-1, 3-acetylamino-N-{2-[(1-naphthalen-1-ylmethyl-piperidin-4-ylmethyl)-amino]-1H-benzimidazol-4-yl}-propionamide] and `COCCNC(=O)c1cccc2[nH]c(NCC3CCN(Cc4cc(Cl)ccc4O)CC3)nc12` [1-4-10, 2-{[1-(5-chloro-2-hydroxy-benzyl)-piperidin-4-ylmethyl]-amino}-1H-benzimidazole-4-carboxylic acid (2-methoxy-ethyl)-amide] cannot be ordered by inhibition at 2 µM: at least 80% for the first, at least 80% for the second.

Work on `COC(=O)c1cccc2[nH]c(NCC3CCN(Cc4cc(Cl)cc(Cl)c4O)CC3)nc12` [1-4-1, 2-{[1-(3,5-dichloro-2-hydroxy-benzyl)-piperidin-4-ylmethyl]-amino}-1H-benzimidazole-4-carboxylic acid methyl ester] yielded an inhibition at 2 µM of 20 to 50%.

same assay, conditions: 10 μM concentration of compound; CCR3-expressing K562 cells; human eotaxin 0.5 μg/ml; read-out: inhibition of eotaxin-induced intracellular calcium concentration increase (Suppression)

`Clc1ccc(CN2CCC(CNc3nc4ccccc4[nH]3)CC2)cc1Cl` [1-1-1, (1H-benzoimidazol-2-yl)-[1-(3,4-dichloro-benzyl)-piperidin-4-ylmethyl]-amine] and `Nc1cccc2[nH]c(NCC3CCN(Cc4ccc(Cl)c(Cl)c4)CC3)nc12` [1-3-61, N2-[1-(3,4-dichlorobenzyl)-piperidin-4-ylmethyl]-1H-benzimidazole-2,4-diamine] cannot be ordered by inhibition at 10 µM: at least 80% for the first, at least 80% for the second.

`Cn1c(CN2CCC(CNc3nc4ccccc4[nH]3)CC2)cc2ccccc21` [1-2-1, (1H-benzimidazol-2-yl)-[1-(1-methyl-1H-indol-2-ylmethyl)-piperidin-4-ylmethyl]-amine] and `c1ccc(CCCCN2CCC(CNc3nc4ccccc4[nH]3)CC2)cc1` [1-2-170, (1H-benzimidazol-2-yl)-[1-(4-phenyl-butyl)-piperidin-4-ylmethyl]-amine] cannot be ordered by inhibition at 10 µM: at least 80% for the first, 50 to 80% for the second.

`CCNC(=O)Nc1cccc2[nH]c(NCC3CCN(Cc4ccc(Cl)c(Cl)c4)CC3)nc12` [1-3-59, 1-(2-{[1-(3,4-dichloro-benzyl)-piperidin-4-ylmethyl]-amino}-1H-benzimidazol-4-yl)-3-ethyl-urea] and `O=C(O)c1ccc2[nH]c(NCC3CCN(CCCc4ccccc4)CC3)nc2c1` [1-5-20, 2-{[1-(3-phenyl-propyl)-piperidin-4-ylmethyl]-amino}-1H-benzimidazole-5-carboxylic acid] cannot be ordered by inhibition at 10 µM: at least 80% for the first, 50 to 80% for the second.
